US8455399B2, “N-(4-perfluoroalkyl-phenyl)-4-triazolyl-benzamides as insecticides” (Syngenta Crop Protection LLC, priority 2009, dated 2013)

Assays:
Type in all cases: in vivo
Diabrotica balteata = Diabrotica balteata (corn root worm) artificial diet test; details: 120 h, 200 ppm (concentration in well 18 ppm), L2 larvae, larval mortality and growth regulation after 5 days
Method: (§1) Diabrotica Balteata (Corn Root Worm): A 24-well microtiter plate (MTP) with artificial diet was treated with test solutions at an application rate of 200 ppm (concentration in well 18 ppm) by pipetting. After drying, the MTP's were infested with L2 larvae (6-10 per well). After an incubation period of 5 days, samples were checked for larval mortality and growth regulation.

Spodoptera littoralis = Spodoptera littoralis (Egyptian cotton leafworm) leaf disc spray test; details: foliar, 72 h, 200 ppm sprayed on cotton leaf discs, 5 L1 larvae, mortality, feeding behavior, growth regulation 3 days after treatment
Source text: Spodoptera Littoralis (Egyptian Cotton Leafworm): Cotton leaf discs were placed on agar in a 24-well microtiter plate and sprayed with test solutions at an application rate of 200 ppm. After drying, the leaf discs were infested with 5 L1 larvae. The samples were checked for mortality, feeding behavior, and growth regulation 3 days after treatment (DAT).

Tetranychus urticae = Tetranychus urticae (two-spotted spider mite) leaf disc spray test; details: foliar, 192 h, 200 ppm sprayed on bean leaf discs, mite populations of mixed ages, egg, larval and adult mortality 8 days later
Source text: Tetranychus Urticae (Two-Spotted Spider Mite): Bean leaf discs on agar in 24-well microtiter plates were sprayed with test solutions at an application rate of 200 ppm. After drying, the leaf discs are infested with mite populations of mixed ages. 8 days later, discs are checked for egg mortality, larval mortality, and adult mortality.

Heliothis virescens = Heliothis virescens (tobacco budworm) egg/artificial diet test; details: 96 h, 200 ppm (concentration in well 18 ppm), eggs 0-24 h old on artificial diet, egg mortality, larval mortality, growth regulation after 4 days
Method: Heliothis Virescens (Tobacco Budworm): Eggs (0-24 h old) were placed in 24-well microtiter plate on artificial diet and treated with test solutions at an application rate of 200 ppm (concentration in well 18 ppm) by pipetting. After an incubation period of 4 days, samples were checked for egg mortality, larval mortality, and growth regulation.

Plutella xylostella = Plutella xylostella (diamond back moth) artificial diet test; details: 144 h, 200 ppm (concentration in well 18 ppm), L2 larvae, larval mortality and growth regulation after 6 days
Method: as §1, with “Plutella Xylostella (Diamond Back Moth):” for “Diabrotica Balteata (Corn Root Worm): A”, “(7-12” for “(6-10”, “6” for “5”

Thrips tabaci = Thrips tabaci (onion thrips) leaf disc spray test; details: foliar, 168 h, 200 ppm sprayed on sunflower leaf discs, population of mixed ages, mortality after 7 days
Method: Thrips Tabaci (Onion Thrips): Sunflower leaf discs were placed on agar in a 24-well microtiter plate and sprayed with test solutions at an application rate of 200 ppm. After drying, the leaf discs were infested with an […] population of mixed ages. After an incubation period of 7 days, samples were checked for mortality.

Measured: pest or weed control at 200 ppm

Cc1cc(C(F)(C(F)(F)F)C(F)(F)F)cc(C)c1NC(=O)c1ccc(-n2cncn2)c([N+](=O)[O-])c1 [A1, N-[2,6-Dimethyl-4-(1,2,2,2-tetrafluoro-1-trifluoromethylethyl)phenyl]-3-nitro-4-(1,2,4-triazol-1-yl)benzamide]
not listed: Thrips tabaci
≥ 80%: all other assays above

CCc1cc(C(F)(C(F)(F)F)C(F)(F)F)cc(CC)c1NC(=O)c1ccc(-n2cncn2)c([N+](=O)[O-])c1 [A2, N-[2,6-Diethyl-4-(1,2,2,2-tetrafluoro-1-trifluoromethylethyl)phenyl]-3-nitro-4-(1,2,4-triazol-1-yl)benzamide]
≥ 80%: Diabrotica balteata | Spodoptera littoralis

CCc1cc(C(F)(C(F)(F)F)C(F)(F)C(F)(F)F)cc(C)c1NC(=O)c1ccc(-n2cncn2)c([N+](=O)[O-])c1 (stereo not shown) [A3, N-[2-Ethyl-4-(1,2,2,3,3,3-hexafluoro-1-trifluoromethylpropyl)-6-methylphenyl]-3-nitro-4-(1,2,4-triazol-1-yl)benzamide]
≥ 80%: all assays above

O=C(Nc1c(Br)cc(C(F)(C(F)(F)F)C(F)(F)C(F)(F)F)cc1Br)c1ccc(-n2cncn2)c([N+](=O)[O-])c1 (stereo not shown) [A4, N-[2,6-dibromo-4-(1,2,2,3,3,3-hexafluoro-1-trifluoromethylpropyl)phenyl]-3-nitro-4-(1,2,4-triazol-1-yl)benzamide]
≥ 80%: all assays above

Cc1cc(C(F)(C(F)(F)F)C(F)(F)F)cc(C)c1NC(=O)c1ccc(-n2cncn2)c(N)c1 [B1, 3-Amino-N-[2,6-dimethyl-4-(1,2,2,2-tetrafluoro-1-trifluoromethylethyl)phenyl]-4-(1,2,4-triazol-1-yl)benzamide]
≥ 80%: Tetranychus urticae | Heliothis virescens

CCc1cc(C(F)(C(F)(F)F)C(F)(F)F)cc(CC)c1NC(=O)c1ccc(-n2cncn2)c(N)c1 [B2, 3-amino-N-[2,6-diethyl-4-(1,2,2,2-tetrafluoro-1-trifluoromethylethyl)phenyl]-4-(1,2,4-triazol-1-yl)benzamide]
not listed: Thrips tabaci
≥ 80%: all other assays above

CCc1cc(C(F)(C(F)(F)F)C(F)(F)C(F)(F)F)cc(C)c1NC(=O)c1ccc(-n2cncn2)c(N)c1 (stereo not shown) [B3, 3-Amino-N-[2-ethyl-4-(1,2,2,3,3,3-hexafluoro-1-trifluoromethylpropyl)-6-methyl-phenyl]-4-(1,2,4-triazol-1-yl)benzamide]
not listed: Thrips tabaci
≥ 80%: all other assays above

Nc1cc(C(=O)Nc2c(Br)cc(C(F)(C(F)(F)F)C(F)(F)C(F)(F)F)cc2Br)ccc1-n1cncn1 (stereo not shown) [B4, 3-amino-N-[2,6-dibromo-4-(1,2,2,3,3,3-hexafluoro-1-trifluoromethylpropyl)-phenyl]-4-(1,2,4-triazol-1-yl)benzamide]
≥ 80%: Spodoptera littoralis | Tetranychus urticae | Heliothis virescens | Plutella xylostella

Cc1cc(C(F)(C(F)(F)F)C(F)(F)F)cc(C)c1NC(=O)c1ccc(-n2cncn2)c(NC(=O)c2ccc(F)cc2)c1 [D1, 3-(4-Fluorobenzoylamino)-N-[2,6-dimethyl-4-(1,2,2,2-tetrafluoro-1-trifluoromethyl-ethyl)phenyl]-4-(1,2,4-triazol-1-yl)benzamide]
≥ 80%: Diabrotica balteata | Spodoptera littoralis | Heliothis virescens | Plutella xylostella

CCc1cc(C(F)(C(F)(F)F)C(F)(F)F)cc(CC)c1NC(=O)c1ccc(-n2cncn2)c(NC(=O)c2ccc(F)cc2)c1 [D2, 3-(4-fluorobenzoylamino)-N-[2,6-diethyl-4-(1,2,2,2-tetrafluoro-1-trifluoromethylethyl)phenyl]-4-(1,2,4-triazol-1-yl)benzamide]
not listed: Tetranychus urticae
≥ 80%: all other assays above

CCc1cc(C(F)(C(F)(F)F)C(F)(F)C(F)(F)F)cc(C)c1NC(=O)c1ccc(-n2cncn2)c(NC(=O)c2cccc([N+](=O)[O-])c2C)c1 (stereo not shown) [D3, 3-(2-Methyl-3-nitrobenzoylamino)-N-[2-ethyl-4-(1,2,2,3,3,3-hexafluoro-1-trifluoromethylpropyl)-6-methylphenyl]-4-(1,2,4-triazol-1-yl)benzamide]
≥ 80%: Spodoptera littoralis | Tetranychus urticae | Heliothis virescens | Plutella xylostella

CCc1cc(C(F)(C(F)(F)F)C(F)(F)C(F)(F)F)cc(C)c1NC(=O)c1ccc(-n2cncn2)c(NC(=O)c2ccc(F)cc2Cl)c1 (stereo not shown) [D4, 3-(2-Chloro-4-fluorobenzoylamino)-N-[2-ethyl-4-(1,2,2,3,3,3-hexafluoro-1-trifluoromethylpropyl)-6-methylphenyl]-4-(1,2,4-triazol-1-yl)benzamide]
≥ 80%: all assays above

CCc1cc(C(F)(C(F)(F)F)C(F)(F)C(F)(F)F)cc(C)c1NC(=O)c1ccc(-n2cncn2)c(NC(=O)c2ccc(C#N)cc2)c1 (stereo not shown) [D5, 3-(4-Cyanobenzoylamino)-N-[2-ethyl-4-(1,2,2,3,3,3-hexafluoro-1-trifluoromethyl-propyl)-6-methylphenyl]-4-(1,2,4-triazol-1-yl)benzamide]
≥ 80%: Spodoptera littoralis | Heliothis virescens | Plutella xylostella

CCc1cc(C(F)(C(F)(F)F)C(F)(F)C(F)(F)F)cc(C)c1NC(=O)c1ccc(-n2cncn2)c(NC(=O)c2ccc(F)cc2)c1 (stereo not shown) [D6, 3-(4-Fluorobenzoylamino)-N-[2-ethyl-4-(1,2,2,3,3,3-hexafluoro-1-trifluoromethyl-propyl)-6-methylphenyl]-4-(1,2,4-triazol-1-yl)benzamide]
≥ 80%: all assays above

O=C(Nc1cc(C(=O)Nc2c(Br)cc(C(F)(C(F)(F)F)C(F)(F)C(F)(F)F)cc2Br)ccc1-n1cncn1)c1ccc(F)cc1 (stereo not shown) [D7, 3-(4-Fluorobenzoylamino)-N-[2,6-dibromo-4-(1,2,2,3,3,3-hexafluoro-1-trifluoromethylpropyl)phenyl]-4-(1,2,4-triazol-1-yl)benzamide]
not listed: Tetranychus urticae
≥ 80%: all other assays above

N#Cc1ccc(C(=O)Nc2cc(C(=O)Nc3c(Br)cc(C(F)(C(F)(F)F)C(F)(F)C(F)(F)F)cc3Br)ccc2-n2cncn2)cc1 (stereo not shown) [D8, 3-(4-cyanobenzoylamino)-N-[2,6-dibromo-4-(1,2,2,3,3,3-hexafluoro-1-trifluoromethylpropyl)phenyl]-4-(1,2,4-triazol-1-yl)benzamide]
not listed: Tetranychus urticae
≥ 80%: all other assays above

O=C(Nc1c(Br)cc(C(F)(C(F)(F)F)C(F)(F)C(F)(F)F)cc1Br)c1ccc(-n2cncn2)c(NC(=O)c2ccc(F)cc2Cl)c1 (stereo not shown) [D9, 3-(2-Chloro-4-fluorobenzoylamino)-N-[2,6-dibromo-4-(1,2,2,3,3,3-hexafluoro-1-trifluoromethylpropyl)phenyl]-4-(1,2,4-triazol-1-yl)benzamide]
≥ 80%: all assays above
